Key:
[1] = target: T1, PYR1-HAB1 (Arabidopsis thaliana, UniProt O49686); assay: Yeast two-hybrid BD-PYR1 / AD-HAB1 interaction, X-gal stain; assay type: cell-based; conditions: 10 μM, except epi-brassinolide (50 nM)
T1 construct: the Pyr1 open reading frame was PCR amplified from genomic DNA; expressed in transfected cells; host or cells: yeast strain Y190
T1 sequence (O49686 1-191): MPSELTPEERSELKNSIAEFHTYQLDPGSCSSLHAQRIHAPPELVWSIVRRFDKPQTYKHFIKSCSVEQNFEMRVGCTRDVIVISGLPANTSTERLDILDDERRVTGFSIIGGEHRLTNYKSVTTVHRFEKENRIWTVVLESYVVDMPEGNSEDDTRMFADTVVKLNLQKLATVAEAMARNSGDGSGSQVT
T1 sequence (Q9CAJ0 23-511 partner): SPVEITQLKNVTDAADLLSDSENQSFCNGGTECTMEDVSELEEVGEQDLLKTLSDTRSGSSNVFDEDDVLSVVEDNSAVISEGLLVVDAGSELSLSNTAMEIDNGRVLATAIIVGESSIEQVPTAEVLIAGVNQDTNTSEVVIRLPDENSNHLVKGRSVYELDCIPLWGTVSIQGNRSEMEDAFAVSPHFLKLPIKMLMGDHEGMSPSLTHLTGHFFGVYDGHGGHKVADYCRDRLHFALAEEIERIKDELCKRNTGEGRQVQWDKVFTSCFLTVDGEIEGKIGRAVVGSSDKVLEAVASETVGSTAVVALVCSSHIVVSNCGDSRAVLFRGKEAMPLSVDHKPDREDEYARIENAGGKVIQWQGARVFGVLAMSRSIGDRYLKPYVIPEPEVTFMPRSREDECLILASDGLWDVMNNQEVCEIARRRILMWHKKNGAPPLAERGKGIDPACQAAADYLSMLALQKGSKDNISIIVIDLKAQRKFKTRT
Procedure: (§1) Given that PYR1 is necessary for pyrabactin action and is a predicted ligand-binding protein, we hypothesized that pyrabactin agonizes ABA signaling by inducing a protein-protein interaction between PYR1 and a downstream effector. To test this, ˜2 million prey cDNA clones were screened against a PYR1 Y2H bait construct on media containing 10 μM pyrabactin. To create the PYR1 Y2H bait construct, the Pyr1 open reading frame was PCR amplified from genomic DNA and cloned to pGem-T easy vector (Promega). After sequence confirmation, the Pyr1 ORF was then cloned in-frame between EcoRI and SalI sites of the pBD-GAL4 Cam vector (Stratagene) and transformed into yeast strain Y190. For the screen, an etiolated seedling cDNA library (J. Kim, K., Harter, A., Theologis, Proc Natl Acad Sci USA 94, 11786 (Oct. 28, 1997)) (ABRC stock CD4-22) was used. The cDNA library was first converted from phage to plasmid DNA, yielding 7.6×10^7 transformants. Plasmid DNA prepared from library was then used to transform Y190 as described in the GAL4 Two-Hybrid system manual (Stratagene). For each screen, 40 μg of prey plasmid was transformed into 1 ml of competent Y190 cell harboring bait construct and then grown on SD agar plates lacking His, Leu, and Trp, but containing 15 mM 3-AT and 10 μM pyrabactin. After 4 days incubation at 30° C., well-grown colonies were rescued and interactions validated using filter lift assay or chloroform-agarose overlay method and X-Gal staining. This identified two pyrabactin-dependent hits which sequencing determined encoded cDNAs for the PP2C HAB1, a close relative of the well-characterized ABA response factor ABI1 (A. Saez et al., The Plant Journal 37, 354 (2004); N. Leonhardt et al., THE PLANT CELL 16, 596 (2004)). Next, Y2H strains expressing an AD-HAB1 fusion protein and a BD-PYR1 fusion protein were grown on plates and tested for interactions in response to various compounds, all at 10 μM except for epi-brassinolide (50 nM) and dimethyl sulfoxide (DMSO) (carrier solvent, 1%). […] Thus, PYR1 interacts with HAB1 in a (+)-ABA dependent fashion.

[2] = tested on: Arabidopsis seeds; assay: Seed germination inhibition; assay type: in vivo; conditions: in vivo
Procedure: FIG. 1. Pyrabactin is a seed selective ABA agonist. (A) Structures of molecules described in this study. (B) Pyrabactin activity is suppressed by abi1-1. Seeds of the genotype shown at top were imbibed on media containing 25 μM pyrabactin and scored for germination 4 days after stratification. Shown at bottom are IC50 values for pyrabactin's germination effect on the genotypes characterized. (C) Microarray comparison of pyrabactin and ABA treatments in seeds. The Y-axis plots the log2 transformed value for a probe's response to 25 μM pyrabactin (relative to untreated control) and the X-axis a probe's response to 1 μM ABA. […] (D) Microarray comparison of cycloheximide and ABA responses in seeds. […] (E) Microarray comparison of pyrabactin and ABA responses in seedlings. Seven-day old seedlings were transferred to 10 μM ABA or 50 μM pyrabactin containing plates for 24 hours and then mRNA samples profiled. Inset in each scatter plot is the Pearson correlation coefficient for each comparison. Detailed microarray methods are described in the Examples section.
FIG. 2. PYR1 encodes an ABA responsive START-domain protein. (A) Pyr1 alleles. Shown are the allele names, strain names (in parentheses) and amino acid changes caused by the Pyr1 mutant alleles identified by screening for pyrabactin resistant mutations. (B) Pictographic representation of Pyr1 and Pyl1-Pyl4 expression values housed in public microarray databases. The heatmap shown at top right is for the first upper three panels and the bottom heatmap for the guard cell data. Plots were made using the eFP browser (D. Winter et al., PLoS ONE 2, e718 (2007)). (C) 35S::GFP-PYR1 complements pyr1-1. Seeds of the genotypes shown were stratified 4 days on 25 μM pyrabactin and then germinated at RT, 90% RH for 3 days in darkness. […] (D) Pyr/Pyls are required for normal ABA-induced gene expression in seedlings. Shown are qRT-PCR results for the ABA-responsive gene RD29. L, Ler; C, Col; and Q, quadruple mutant. (E) Pyr/Pyl genes are required for normal ABA-induced stress-induced gene expression in seedlings. Shown are qRT-PCR results for two ABA-responsive taqman probes, as described in the Examples section. L=Ler, C=Col, Q=quadruple mutant.
As part of an earlier effort, we identified a germination inhibitor named pyrabactin (Y. Zhao et al., Nat Chem Biol 3, 716 (2007)). […] To test this hypothesis, we examined the pyrabactin sensitivity of mutant lines with altered ABA signaling, biosynthesis or gibberellic acid (GA) perception.
We next performed microarray experiments to evaluate the similarity of the transcriptional responses induced by ABA and pyrabactin treatments. For microarray, tissue was prepared and RNA extracted from Columbia wild type seeds sown on 0.5×MS media (˜2500 seeds per 150 mm plate) containing either 1 μM ABA, 25 μM pyrabactin, 25 μM 2,4-Dinitrophenol (DNP), 1 μM cycloheximide, 2 μM methotrexate or 1% DMSO control plates (all chemicals are dissolved in DMSO). The concentrations utilized for these experiments were normalized for germination inhibition activity by dose curve analyses, i.e. the amount of both compounds required to ensure 100% inhibition of germination when scored 3 days post-imbibition. ABA (±stereoisomers), DNP, cycloheximide and methotrexate were purchased from Sigma Aldrich. Seeds were stratified for 4 days and then incubated in the dark at room temperature for 24 hours. […]

[3] = target: T2, PYL3-HAB1 (Arabidopsis thaliana, UniProt Q9SSM7); assay: Yeast two-hybrid BD-PYL3 / AD-HAB1 interaction; assay type: cell-based
T2 construct: BD-PYR/PYL fusion proteins were constructed in the same manner as for BD-PYR1 above; expressed in transfected cells; host or cells: yeast (Y190, as for BD-PYR1)
T2 sequence (Q9SSM7 1-209): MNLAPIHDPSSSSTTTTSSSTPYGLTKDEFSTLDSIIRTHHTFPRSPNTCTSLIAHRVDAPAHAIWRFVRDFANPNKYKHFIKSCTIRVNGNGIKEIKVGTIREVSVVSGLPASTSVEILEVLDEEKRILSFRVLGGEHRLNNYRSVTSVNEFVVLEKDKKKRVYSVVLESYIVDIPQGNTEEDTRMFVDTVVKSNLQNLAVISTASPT
T2 sequence (Q9CAJ0 23-511 partner): T1 sequence (Q9CAJ0 23-511 partner)
Procedure: as §1
(§2) To see if ABA and pyrabactin responsiveness is unique to PYR1, we tested 11 of the 13 PYL proteins as described above, using Y2H strains expressing an AD-HAB1 fusion protein and a BD-PYR/PYL fusion protein (listed at the left of FIG. 3A). BD-PYR/PYL fusion proteins were constructed in the same manner as for BD-PYR1 above. […] Of these, only Pyr1 is highly transcribed in seeds, which likely explains why mutations in Pyr1 cause the seeds to be insensitive to pyrabactin. […] However the interactions of PYLs 5-12 with the PP2Cs are indicative that the entire protein family is likely to share a similar mechanism of action involving PP2C modulation, as we describe below. Thus, we conclude that entire family modulates ABA responses via PP2C interactions.
The yeast strains expressing PYR/PYL receptors and type 2 C protein phosphatases were also used to screen HPLC-fractionated plant extracts for the presence of endogenous compounds that activate PYL/PYL receptors PYR1, PYL2, PYL3, and/or PYL4. HPLC fractionation of extracts was used to identify compounds different from abscisic acid (the known agonist). […] Purification of the agonist was achieved via multiple rounds of chromatographic separation coupled to yeast two hybrid assays that informed the fractions to move forward at each step of the purification. The structure of the purified agonist was deduced by X-ray crystallography of crystalline purified agonist.

[4] = target: T3, PYL4-HAB1 (Arabidopsis thaliana, UniProt O80920); assay: Yeast two-hybrid BD-PYL4 / AD-HAB1 interaction; assay type: cell-based
T3 construct: BD-PYR/PYL fusion proteins were constructed in the same manner as for BD-PYR1 above; expressed in transfected cells; host or cells: yeast (Y190, as for BD-PYR1)
T3 sequence (O80920 1-207): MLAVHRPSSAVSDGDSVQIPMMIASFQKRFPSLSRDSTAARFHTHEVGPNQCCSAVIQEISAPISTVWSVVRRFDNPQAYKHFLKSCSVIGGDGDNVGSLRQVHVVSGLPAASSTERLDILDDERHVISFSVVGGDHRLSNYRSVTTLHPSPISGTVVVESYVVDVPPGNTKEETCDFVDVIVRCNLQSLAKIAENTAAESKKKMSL
T3 sequence (Q9CAJ0 23-511 partner): T1 sequence (Q9CAJ0 23-511 partner)
Procedure: as §1
as §2, with “Thus, we conclude that entire family modulates ABA responses via PP2C interactions.” left out

[5] = target: T4, PYL2-HAB1 (Arabidopsis thaliana, UniProt O80992); assay: Yeast two-hybrid BD-PYL2 / AD-HAB1 interaction, X-gal stain; assay type: cell-based; conditions: 10 μM
T4 construct: BD-PYR/PYL fusion proteins were constructed in the same manner as for BD-PYR1 above; expressed in transfected cells; host or cells: yeast (Y190, as for BD-PYR1)
T4 sequence (O80992 1-190): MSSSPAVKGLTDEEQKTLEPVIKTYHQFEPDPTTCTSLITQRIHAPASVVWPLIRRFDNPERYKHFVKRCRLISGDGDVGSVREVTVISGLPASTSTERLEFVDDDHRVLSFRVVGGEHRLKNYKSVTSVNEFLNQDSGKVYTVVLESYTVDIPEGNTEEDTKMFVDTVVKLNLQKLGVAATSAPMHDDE
T4 sequence (Q9CAJ0 23-511 partner): T1 sequence (Q9CAJ0 23-511 partner)
Procedure: as §1, with “fashion. […]” for “fashion.”

[6] = plant extract screen and related commercial compounds

| Compound | PYR1-HAB1 interaction by X-gal stain [1] | also measured |
| --- | --- | --- |
| O=C(O)COc1ccc(Cl)cc1Cl [2,4-D] | neither (−)-ABA, kinetin, 2,4-D, Gibberellic acid (GA), epi-brassinolide (BR), methyl jasmonate (meJA) or apyrabactin showed activity |  |
| C=C1C[C@]23C[C@@]1(O)CC[C@H]2[C@@]12C=C[C@H](O)[C@@](C)(C(=O)O1)[C@H]2[C@@H]3C(=O)O [Gibberellic acid] | neither (−)-ABA, kinetin, 2,4-D, Gibberellic acid (GA), epi-brassinolide (BR), methyl jasmonate (meJA) or apyrabactin showed activity |  |
| O=S(=O)(NCc1ccccc1)c1ccc(Br)c2ccccc12 [apyrabactin] | neither (−)-ABA, kinetin, 2,4-D, Gibberellic acid (GA), epi-brassinolide (BR), methyl jasmonate (meJA) or apyrabactin showed activity | effect on germination [2]: inactive analog |
| C=C(C(=O)O)[C@@H]1CC[C@@H](C)[C@@H]2CCC(C)=C[C@@H]21 [artemisinic acid] |  | PYL3 agonist activity in yeast two hybrid assays [3, 6]: PYL3/PYL4 selective agonist; PYL4 agonist activity in yeast two hybrid assays [4, 6]: PYL3/PYL4 selective agonist |
| CC(C)[C@@H](C)[C@@H](O)[C@H](O)[C@@H](C)[C@H]1CC[C@H]2[C@@H]3COC(=O)[C@H]4C[C@H](O)[C@H](O)C[C@]4(C)[C@H]3CC[C@]12C [epi-brassinolide] | neither (−)-ABA, kinetin, 2,4-D, Gibberellic acid (GA), epi-brassinolide (BR), methyl jasmonate (meJA) or apyrabactin showed activity |  |
| c1coc(CNc2ncnc3[nH]cnc23)c1 [kinetin] | neither (−)-ABA, kinetin, 2,4-D, Gibberellic acid (GA), epi-brassinolide (BR), methyl jasmonate (meJA) or apyrabactin showed activity |  |
| CC/C=C\CC1C(=O)CCC1CC(=O)OC (stereo not shown) [methyl jasmonate] | neither (−)-ABA, kinetin, 2,4-D, Gibberellic acid (GA), epi-brassinolide (BR), methyl jasmonate (meJA) or apyrabactin showed activity |  |
| (−)-ABA | neither (−)-ABA, kinetin, 2,4-D, Gibberellic acid (GA), epi-brassinolide (BR), methyl jasmonate (meJA) or apyrabactin showed activity | PYL2-HAB1 interaction by X-gal stain [5]: respond; PYL3-HAB1 interaction by X-gal stain ([3]; 10 μM): respond; PYL4-HAB1 interaction by X-gal stain ([4]; 10 μM): respond |
